Entries after “also recorded” stand apart in the source; their conditions may differ.
What was measured:
EZH2 = biological target: T1, EZH2 (Homo sapiens, UniProt Q15910); assay: H3K27Me3 / EZH2 immunoblot in A1847 cells; type: cell-based; details: 72 hours, read-out: inhibition of the enzymatic activity of EZH2 as indicated by decrease in H3K27Me3 levels
T1 construct: endogenous in cells; host or cells: A1847 human epithelial ovarian cancer cells
Method: FIG. 32 illustrates that the EZH2 inhibitor GSK 126 decreases H3K27Me3 levels in a dose-dependent manner. A1847 cells were treated with the indicated concentrations of GSK126 for 72 hours and examined for expression of the indicated proteins by immunoblot. Expression of histone H3 and β-actin was used as a loading control.
Small molecules used in the epigenetic screen were obtained from Structural Genomics Consortium or The Wistar Institute Molecular Screening Facility. GSK126 was obtained from Active Biochem or Xcess Biosciences. Antibodies were obtained from: mouse anti-CARM1 (Cell Signaling, Cat. No: 12495, 1:1000 for immunoblotting), goat anti-BAF155 (Santa Cruz, Cat. No: SC9746, 1:1000 for immunoblotting), rabbit anti-methylated R1064 BAF155 (Millipore, Cat. No: ABE1339, 1:1000 for immunoblotting), rabbit anti-EZH2 (Cell Signaling, Cat. No: 5246, 1:1000 for immunoblotting), rabbit anti-cleaved PARP p85 (Promega, Cat. No: G7341, 1:1000 for immunoblotting), mouse anti-Ki67 (Cell Signaling, Cat. No: 9449, 1:500 for IHC), rabbit anti-cleaved caspase 3 (Cell Signaling, Cat. No: 9661, 1:1000 for immunoblotting and 1:50 for IHC), rabbit anti-H3K27Me3 (Cell Signaling, Cat. No: 9733, 1:1000 for immunoblotting and 1:100 for IHC), mouse anti-β-actin (Sigma, Cat. No: A1978, 1:20,000 for immunoblotting), rabbit anti-RNA pol II (Santa Cruz, Cat. No: sc-899). […]

HOSE or FTE cells = assay: Colony formation assay, normal HOSE and FTE cells; type: cell-based, Human; details: 10 μM
Method: FIG. 33 illustrates relative growth of the indicated HOSE, FTE, and EOC cancer cell lines with high or low CARM1 expression treated with 10 μM GSK126 or vehicle in a colony formation assay as determined by NIH Image J quantification.
500 to 5,000 cell were plated into a 24 well tissue culture plate and treated with the indicated compounds. Medium was changed every three days with appropriate drug doses for 12 days or until control wells became confluent. Colonies were washed twice with PBS and fixed with 10% methanol and 10% acetic acid in distilled water. Fixed colonies were stained with 0.005% crystal violet. Integrated density was measured using NIH ImageJ software.

[1] = test system: parental and CARM1 knockout A1847 cells, OVCAR10 cells; assay: Apoptosis markers (Annexin V, cleaved caspase 3, cleaved PARP); type: cell-based, Human; details: 10 μM; 7 days; CARM1-dependent manner
Method: FIG. 37 illustrates control parental and CARM1 knockout A1847 cells were treated with 10 μM GSK126 or vehicle for 7 days. Percentage of Annexin V positive apoptotic cells was quantified. *p<0.001 and #p>0.05.
FIG. 38 illustrates levels of cleaved caspase 3 and cleaved PARP in control parental and CARM1 knockout A1847 cells treated with 10 μM GSK126 for 7 days. Expression of β-actin was used as a loading control.
FIG. 39A illustrates the expression of apoptosis markers cleaved in CARM1 high OVCAR10 cells as a result of treatment with GSK126. CARM1 high OVCAR10 cells were treated with 10 μM GSK 126 or vehicle control for 7 days. The expression of apoptosis markers cleaved caspase 3 and cleaved PARP were determined by immunoblot. Expression of β-actin was used as a loading control.
Phosphatidylserine externalization was detected using an Annexin V staining kit (Millipore) following the manufacturer's instructions. Annexin V-positive cells were detected using the Guava System and analyzed with the Guava Nexin software Module (Millipore).

[2] = test system: CARM1-expressing A1847 tumors; assay: Subcutaneous xenograft, CARM1-expressing A1847 cells; type: in vivo, NSG mice; details: 50 mg/kg daily i.p., three weeks
Method: (§1) FIGS. 73 to 75 illustrate that EZH2 inhibition suppressed the growth of CARM1-expressing ovarian tumors in vivo. FIG. 73 illustrates images of tumors dissected from control or GSK126 treated mice. CARM1-high A1847 cells were injected subcutaneously into immunocompromised NSG mice (n=5/group). Tumors were allowed to establish for one week before the mice were randomized into two different treatment groups. Mice were treated with vehicle control or GSK126 (50 mg/kg daily) for an additional three weeks. At the end of treatment, the mice were euthanized. Bar=1 cm. FIG. 74 illustrates a difference in tumor size measured as a surrogate for tumor burden from the control and GSK 126 treated mice at the indicated time point. FIG. 75 illustrates a difference in tumor weight measured as a surrogate for tumor burden from control and GSK 126-treated mice. The mice were injected with CARM1 knockout A1847 cells.
(§2) The protocols were approved by the Institutional Animal Care and Use Committee (IACUC). 5×10^6 control A1847 or A1847 CARM1 knockout cells were unilaterally injected subcutaneously into 6-8-week old female immunocompromised NSG mice (n=5 per group). […] Tumor size was measured every 3 days for 3 weeks. At end of the experiments, tumors were surgically dissected and tumor burden was calculated based on tumor weight.

[3] = test system: tumors formed by CARM1 knockout A1847 cells; assay: Subcutaneous xenograft, CARM1 knockout A1847 cells; type: in vivo, NSG mice; details: 50 mg/kg daily
Method: as §1, §2

CARM1-expressing tumors = assay: IHC and qRT-PCR of dissected CARM1-expressing tumors; type: in vivo, NSG mice; details: IHC
Method: FIG. 79 illustrates immunohistochemical analysis for serial sections of tumors dissected from the indicated treatment groups where the tumor sections were stained for H3K27Me3, EZH2, cleaved caspase 3, and Ki67. Scale bar=50 μm.
FIG. 80 illustrates histological scoring (H-score) of the indicated proteins that was calculated for 3 separate fields from 5 tumors from 5 individual mice from each of the indicated groups.
FIG. 81 illustrates the expression of the indicated EZH2/BAF155 target genes that was determined by qRT-PCR in the tumors dissected from the indicated treatment groups.

[4] = test system: tumors formed by CARM1 knockout cells; assay: IHC and qRT-PCR of dissected CARM1 knockout tumors; type: in vivo, NSG mice
Method: FIGS. 82 to 84 illustrate immunohistochemical analysis for serial sections of tumors dissected from mice injected with CARM1 knockout A1847 cells. Serial sections of tumors dissected from the indicated treatment groups described in FIGS. 73 to 75 were subjected to immunohistochemical staining for H3K27Me3, E7H2, cleaved caspase 3, and Ki67 (FIG. 82). Scale bar=50 μm. Histological score (H-score) of the indicated proteins was calculated for 3 separate fields from 5 tumors from 5 individual mice from each of the indicated groups (FIG. 83). Expression of the indicated EZH2/BAF155 target genes was determined by qRT-PCR in the tumors dissected from the indicated treatment groups (FIG. 84).

[5] = clinical trials for hematopoietic malignancies; cited from earlier work

T1 sequence (Q15910 whole entry): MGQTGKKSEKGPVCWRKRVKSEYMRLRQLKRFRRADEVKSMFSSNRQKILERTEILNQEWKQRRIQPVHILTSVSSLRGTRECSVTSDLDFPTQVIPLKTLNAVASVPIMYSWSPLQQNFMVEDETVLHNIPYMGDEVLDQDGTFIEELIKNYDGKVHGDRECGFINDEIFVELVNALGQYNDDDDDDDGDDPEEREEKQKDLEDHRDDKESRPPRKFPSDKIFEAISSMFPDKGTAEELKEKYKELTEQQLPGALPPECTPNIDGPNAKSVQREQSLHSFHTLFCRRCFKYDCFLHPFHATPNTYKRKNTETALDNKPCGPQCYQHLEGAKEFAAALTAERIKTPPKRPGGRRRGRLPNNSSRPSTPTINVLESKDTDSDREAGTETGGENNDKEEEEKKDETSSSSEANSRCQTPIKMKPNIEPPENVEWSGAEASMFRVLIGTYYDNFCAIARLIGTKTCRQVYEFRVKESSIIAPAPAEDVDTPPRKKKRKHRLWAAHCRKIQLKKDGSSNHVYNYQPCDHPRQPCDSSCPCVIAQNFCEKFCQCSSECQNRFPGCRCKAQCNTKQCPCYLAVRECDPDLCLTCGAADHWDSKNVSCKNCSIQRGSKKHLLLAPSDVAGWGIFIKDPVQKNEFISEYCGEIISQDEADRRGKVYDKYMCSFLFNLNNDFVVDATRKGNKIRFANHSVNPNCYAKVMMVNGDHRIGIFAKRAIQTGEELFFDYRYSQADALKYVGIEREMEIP
T1 sequence (Q15022 whole entry partner): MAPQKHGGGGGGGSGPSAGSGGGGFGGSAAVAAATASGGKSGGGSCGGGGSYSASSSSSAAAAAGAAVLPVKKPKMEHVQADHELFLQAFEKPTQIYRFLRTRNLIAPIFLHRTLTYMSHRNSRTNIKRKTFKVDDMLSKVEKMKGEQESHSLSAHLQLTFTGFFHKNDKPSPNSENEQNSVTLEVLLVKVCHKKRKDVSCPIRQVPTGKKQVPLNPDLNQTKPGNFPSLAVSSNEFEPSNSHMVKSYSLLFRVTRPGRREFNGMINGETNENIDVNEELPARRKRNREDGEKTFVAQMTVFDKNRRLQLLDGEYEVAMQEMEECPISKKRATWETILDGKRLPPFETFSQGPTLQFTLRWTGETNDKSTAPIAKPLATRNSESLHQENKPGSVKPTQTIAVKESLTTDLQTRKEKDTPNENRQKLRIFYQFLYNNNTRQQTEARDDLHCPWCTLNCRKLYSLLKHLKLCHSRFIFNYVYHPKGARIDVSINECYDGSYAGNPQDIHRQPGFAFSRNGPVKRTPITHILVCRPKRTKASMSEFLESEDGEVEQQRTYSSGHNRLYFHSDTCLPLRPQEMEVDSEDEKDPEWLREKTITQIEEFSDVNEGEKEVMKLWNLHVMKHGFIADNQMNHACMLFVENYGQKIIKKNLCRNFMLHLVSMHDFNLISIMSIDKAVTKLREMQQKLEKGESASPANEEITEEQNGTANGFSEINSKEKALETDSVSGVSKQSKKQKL
T1 sequence (O75530 whole entry partner): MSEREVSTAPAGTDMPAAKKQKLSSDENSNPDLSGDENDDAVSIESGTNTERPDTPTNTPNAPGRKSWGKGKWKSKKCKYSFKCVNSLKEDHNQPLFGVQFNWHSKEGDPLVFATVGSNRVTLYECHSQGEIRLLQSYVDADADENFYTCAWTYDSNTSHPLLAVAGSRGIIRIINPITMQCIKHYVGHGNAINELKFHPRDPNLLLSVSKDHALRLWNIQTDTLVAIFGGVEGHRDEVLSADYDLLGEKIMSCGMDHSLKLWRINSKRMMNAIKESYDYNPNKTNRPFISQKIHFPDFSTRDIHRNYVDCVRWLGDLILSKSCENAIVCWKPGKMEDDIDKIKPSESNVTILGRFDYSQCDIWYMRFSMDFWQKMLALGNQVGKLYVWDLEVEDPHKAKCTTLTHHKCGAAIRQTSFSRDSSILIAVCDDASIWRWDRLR

With `CC[C@H](C)n1cc(C)c2c(C(=O)NCc3c(C)cc(C)[nH]c3=O)cc(-c3ccc(N4CCNCC4)nc3)cc21` [GSK126, (S)-1-(sec-butyl)-N-((4,6-dimethyl-2-oxo-1,2-dihydropyridin-3-yl)methyl)-3-methyl-6-(6-(piperazin-1-yl)pyridin-3-yl)-1H-indole-4-carboxamide] the inhibition at 10 µM (EZH2) was greater than 95%, the “growth of normal cells” value (HOSE or FTE cells) was “did not affect the growth of either HOSE or FTE cells” and the markers of apoptosis [1] was “markers of apoptosis were induced”. The tumor growth [2] was “significantly inhibited the growth of CARM1-expressing tumors”, the tumor growth [3] was “failed to inhibit the growth” and the H3K27Me3 staining (CARM1-expressing tumors) was “H3K27Me3 staining was decreased”. The “expression of Ki67” value ([4]; IHC) was “did not affect the expression of Ki67 and cleaved caspase 3”, the “expression of cleaved caspase 3” value ([4]; IHC) was “did not affect the expression of Ki67 and cleaved caspase 3” and the “expression of EZH2/BAF155 target genes” value ([4]; qRT-PCR) was “did not increase the expression”. The “tolerability in clinical trials” value [5] was “used safely in clinical trials; also recorded: well-tolerated with limited toxicity”.
